This is an account of results in patent US12319663B2, “Alkene-containing amide compound and application thereof” (SHENYANG SINOCHEM AGROCHEMICALS R&D CO., LTD., priority 2019, dated 2025).

Holding throughout (format): in vivo
For one test, the system named is zinnia. As to the kind of experiment: Herbicidal activity, post-emergence stem and leaf spray, greenhouse: zinnia control. Conditions: visual, 0 = no control effect, 100% = complete killing. The method, then: (§1) Seeds of broadleaf weeds (zinnia and piemarker) or grassy weeds (green bristlegrass and barnyard grass) are respectively sown in a paper cup having a diameter of 7 cm and containing nutrient soil; after sowing, the seeds are covered with 1 cm of soil; the soil is pressed and watered, and then the seeds are cultivated in a greenhouse according to a conventional method; and stems and leaves are sprayed after 2-3 leaf stage of the weeds.
(§2) After the original medicinal acetone was dissolved, the test requires to use 1% of Tween 80 to stand in running water to prepare the solution to be tested with a required concentration. According to the design dose of the test, spray treatment was carried out on a track-type crop sprayer (designed and produced by British Engineer Research Ltd.) (spray pressure is 1.95 kg/cm^2, spray volume is 50 L/hm^2 and track speed is 1.48 km/h). The test was repeated for three times. The test material was treated and then placed in an operation hall. The medicinal liquid was naturally dried in the shade, and then was placed in a greenhouse and managed according to the conventional method, The response of the weeds to the drug was observed and recorded, After treatment, the control effects of the test drug on the weeds were visually inspected regularly, expressed by 0-100%. “0” represents no control effect and “100%” represents complete killing.
According to the above test method, part of the compounds of the formula I and KC are selected for activity test of controlling the zinnia.

The next test has as its system piemarker. The test is described as follows: Herbicidal activity, post-emergence stem and leaf spray, greenhouse: piemarker control. Here is the method:
as §1, §2
According to the above test method, part of the compounds of the formula I and KC are selected for activity test of controlling the piemarker. […]

The subject of a further test is barnyard grass. The test is described as follows: Herbicidal activity, post-emergence stem and leaf spray, greenhouse: barnyard grass control. Here is the method:
as §1, §2
According to the above test method, part of the compounds of the formula I and KC are selected for the activity test of controlling the barnyard grass.

In a further test the test system is green bristlegrass. As to the kind of experiment: Herbicidal activity, post-emergence stem and leaf spray, greenhouse: green bristlegrass control. Here is the method:
as §1, §2
According to the above test method, part of the compounds of the formula I and KC are selected for the activity test of controlling the green bristlegrass.

The mark [1] stands for this setting: dose 37.5 g a.i./hm2, post-emergence stem and leaf spray.
Setting [2] is: dose 150 g a.i./hm2, post-emergence stem and leaf spray.
Where [3] appears, read: dose 600 g a.i./hm2, post-emergence stem and leaf spray.

With `Cc1c(S(C)(=O)=O)ccc(C(=O)N(C(=O)/C=C/c2ccccc2)c2nnnn2C)c1Cl` [Compound 1-19], the “Zinnia control activity (after emergence, control effect %)” value in the test with zinnia (dose 37.5 g a.i./hm^2) worked out at 95%; in the test on zinnia (dose 150 g a.i./hm^2), 95%; with zinnia (dose 600 g a.i./hm^2), 100%. In addition, the figures for the “Piemarker control activity (after emergence, control effect %)” value in the test on piemarker (setting [1]), with piemarker (setting [2]) and with piemarker (setting [3]) were 90%, 90% and 98%, respectively.

On to `COCc1c(S(C)(=O)=O)ccc(C(=O)N(C(=O)/C=C/c2ccccc2)c2nnnn2C)c1Cl` [Compound 1-24], for which the “Zinnia control activity (after emergence, control effect %)” value in the test with zinnia (dose 37.5 g a.i./hm^2), in the test with zinnia (dose 150 g a.i./hm^2) and in the test on zinnia (dose 600 g a.i./hm^2) was 100% throughout. In addition, the “Piemarker control activity (after emergence, control effect %)” value in the test with piemarker (setting [1]), with piemarker (setting [2]) and with piemarker (setting [3]) was 100% in each case. The results for the “Barnyard grass control activity (after emergence, control effect %)” value in the test on barnyard grass (setting [1]), with barnyard grass (setting [2]) and in the test with barnyard grass (setting [3]) were 95%, 95% and 100%, respectively.

On to `Cc1c(C(=O)N(C(=O)C2=CCCC2)c2nnnn2C)ccc(S(C)(=O)=O)c1OCC(F)(F)F` [Compound 2-15], for which the “Zinnia control activity (after emergence, control effect %)” value with zinnia (dose 37.5 g a.i./hm^2), in the test on zinnia (dose 150 g a.i./hm^2) and with zinnia (dose 600 g a.i./hm^2) was 100% throughout. In addition, the “Green bristlegrass control activity (after emergence, control effect %)” value in the test on green bristlegrass (setting [1]) came out at 90%; in the test on green bristlegrass (setting [2]), 100%; with green bristlegrass (setting [3]) it was 100%. Besides, the “Barnyard grass control activity (after emergence, control effect %)” value in the test on barnyard grass (setting [1]) worked out at 85%; with barnyard grass (setting [2]), 100%; in the test on barnyard grass (setting [3]) it was 100%.

As to `Cc1c(S(C)(=O)=O)ccc(C(=O)N(C(=O)C2=CCCCC2)c2nnnn2C)c1Cl` [Compound 2-97], the “Zinnia control activity (after emergence, control effect %)” value in the test with zinnia (dose 37.5 g a.i./hm^2), with zinnia (dose 150 g a.i./hm^2) and in the test on zinnia (dose 600 g a.i./hm^2) was 100% each time. Besides, the “Piemarker control activity (after emergence, control effect %)” value in the test with piemarker (setting [1]) is 95%; in the test with piemarker (setting [2]) it was 100%; in the test on piemarker (setting [3]) it was 100%. Moreover, the “Green bristlegrass control activity (after emergence, control effect %)” value was found to be 80% with green bristlegrass (setting [1]), 95% in the test on green bristlegrass (setting [2]) and 100% with green bristlegrass (setting [3]). Further, the “Barnyard grass control activity (after emergence, control effect %)” value came to 90% in the test with barnyard grass (setting [1]), 95% in the test with barnyard grass (setting [2]) and 100% with barnyard grass (setting [3]).

With `COCc1c(S(C)(=O)=O)ccc(C(=O)N(C(=O)C2=CCCCC2)c2nnnn2C)c1Cl` [Compound 2-103], the “Zinnia control activity (after emergence, control effect %)” value with zinnia (dose 37.5 g a.i./hm^2) is listed as 90%; in the test on zinnia (dose 150 g a.i./hm^2), 95%; with zinnia (dose 600 g a.i./hm^2), 100%. The “Piemarker control activity (after emergence, control effect %)” value is 95% with piemarker (setting [1]), 100% with piemarker (setting [2]) and 100% with piemarker (setting [3]). In addition, the “Green bristlegrass control activity (after emergence, control effect %)” value amounted to 80% in the test on green bristlegrass (setting [1]), 90% with green bristlegrass (setting [2]) and 95% in the test on green bristlegrass (setting [3]). Moreover, the “Barnyard grass control activity (after emergence, control effect %)” value in the test with barnyard grass (setting [1]) came to 80%; in the test on barnyard grass (setting [2]), 90%; in the test with barnyard grass (setting [3]) it was 100%.

Turning to `Cn1nnnc1N(C(=O)C1=CCCCC1)C(=O)c1ccc(C(F)(F)F)cc1S(C)(=O)=O` [Compound 2-265], the “Zinnia control activity (after emergence, control effect %)” value was 95% with zinnia (dose 37.5 g a.i./hm^2), 100% in the test with zinnia (dose 150 g a.i./hm^2) and 100% with zinnia (dose 600 g a.i./hm^2). For the same molecule, the “Piemarker control activity (after emergence, control effect %)” value in the test with piemarker (setting [1]) worked out at 90%; in the test with piemarker (setting [2]), 95%; in the test with piemarker (setting [3]) it was 95%. Besides, the “Green bristlegrass control activity (after emergence, control effect %)” value with green bristlegrass (setting [1]) is 80%; in the test on green bristlegrass (setting [2]) it was 90%; with green bristlegrass (setting [3]), 95%. The “Barnyard grass control activity (after emergence, control effect %)” value with barnyard grass (setting [1]), in the test with barnyard grass (setting [2]) and in the test with barnyard grass (setting [3]) was 95% throughout.

For the molecule `Cn1nnnc1N(C(=O)C1=CCCC1)C(=O)c1ccc(C(F)(F)F)cc1S(C)(=O)=O` [Compound 2-266], the “Zinnia control activity (after emergence, control effect %)” value in the test with zinnia (dose 37.5 g a.i./hm^2) came out at 95%; in the test on zinnia (dose 150 g a.i./hm^2) it was 98%; in the test with zinnia (dose 600 g a.i./hm^2), 100%. The entries for the “Piemarker control activity (after emergence, control effect %)” value in the test with piemarker (setting [1]), with piemarker (setting [2]) and with piemarker (setting [3]) were 90%, 95% and 100%, respectively. In addition, the “Green bristlegrass control activity (after emergence, control effect %)” value with green bristlegrass (setting [1]) is 90%; with green bristlegrass (setting [2]), 95%; in the test on green bristlegrass (setting [3]), 100%. In addition, the “Barnyard grass control activity (after emergence, control effect %)” value in the test with barnyard grass (setting [1]) is on record as 85%; with barnyard grass (setting [2]), 90%; in the test on barnyard grass (setting [3]), 95%.

As for `COCCOCc1c(S(C)(=O)=O)ccc(C(=O)N(C(=O)C2=CCCCC2)c2nnnn2C)c1Cl` [Compound 2-270], the “Piemarker control activity (after emergence, control effect %)” value in the test with piemarker (setting [1]) was 90%; in the test on piemarker (setting [2]), 98%; in the test with piemarker (setting [3]) it was 100%. In addition, the results for the “Green bristlegrass control activity (after emergence, control effect %)” value in the test on green bristlegrass (setting [1]), in the test on green bristlegrass (setting [2]) and in the test with green bristlegrass (setting [3]) were 90%, 95% and 98%, respectively. Besides, the figures for the “Barnyard grass control activity (after emergence, control effect %)” value in the test with barnyard grass (setting [1]), in the test on barnyard grass (setting [2]) and with barnyard grass (setting [3]) were 90%, 95% and 100%, respectively.

For the molecule `Cn1nnnc1N(C(=O)c1ccccc1)C(=O)c1ccc(C(F)(F)F)cc1S(C)(=O)=O` [KC, reference compound], the “Zinnia control activity (after emergence, control effect %)” value with zinnia (dose 37.5 g a.i./hm^2) is 65%; in the test with zinnia (dose 150 g a.i./hm^2), 90%. The “Piemarker control activity (after emergence, control effect %)” value is given as 60% with piemarker (setting [1]) and 85% in the test with piemarker (setting [2]). Moreover, the “Green bristlegrass control activity (after emergence, control effect %)” value in the test on green bristlegrass (setting [1]) amounted to 45%; in the test on green bristlegrass (setting [2]), 70%. For the same molecule, the “Barnyard grass control activity (after emergence, control effect %)” value in the test on barnyard grass (setting [1]) turned out to be 50%; with barnyard grass (setting [2]), 65%.
